From patent US20070117770A1, “Human ribosomal DNA (rDNA) and ribosomal RNA (rRNA) nucleic acids and uses thereof” (Cylene Pharmaceuticals, Inc., priority 2005, published 2007) come the findings set out here.

This experiment relates to fibrillarin in A549 cells. The experiment in a line: Cell fibrillarin localization (immunofluorescence). The format is cell-based. Conditions: protocol as for nucleolin. How it is done:
An assay was conducted to determine the effect of ribosomal nucleic acid interacting compounds on cell nucleolin location. In these studies, A549 cells were plated in borosilicate chamber slides. The cells were treated with 10 uM compound A-1 the next day for two hours, washed with phosphate buffered saline, fixed for 10 minutes in 4% paraformaldehyde, permeabilized for 5 minutes in a 1:1 ethanol:acetone mix, incubated with a 1:100 dilution of an anti-nucleolin monoclonal antibody (catalog no. RDI-NUCLEOLabm; Research Diagnostics, Inc.) in 5% donkey serum, followed by incubation with a 1:100 diluted TRITC-labeled secondary anti-mouse antibody and observed under a fluorescence microscope (e.g., Olympus) in the TRITC channel at 600× magnification. […] Accordingly, nucleolin was redistributed from the nucleolus to the nucleoplasm in cells treated with a compound tested in the assay.
Another assay was conducted to determine the effect of ribosomal nucleic acid interacting compounds on cell fibrillarin location. These studies were conducted using a protocol similar to that described in the preceding paragraph, except an antibody that specifically bound to fibrillarin (catalog no. ab5821; Novus Biologicals, Inc.) was utilized.

In the case of `CN1CCCC1CCNC(=O)c1cn2c3c(c(N4CCC(c5cnccn5)C4)c(F)cc3c1=O)Oc1cc3ccccc3cc1-2` (stereo not shown) [Compound A-1], the “fibrillarin localization in treated cells” value is given as “caused redistribution of fibrillarin”.
